Results reported in patent US10548862B2, “Topical formulation and method for preventing or treating acne” (Gongwin Biopharm Holdings Co., Ltd., priority 2017, dated 2020).
Converted amounts (≈) assume the structure as drawn.

Experiment: Solubility of p-TSA in various solvents
Assay type: physicochemical
Settings: thermodynamic from solid

solubility (aqueous with cosolvent or surfactant or cyclodextrin, in 20% 7-sulfobutyl-ether-β-cyclodextrin (SBEβCD), n = 3): 17.6 mg/mL (≈ 103 mM)
solubility (organic solvent or mixture, in Absolute ethanol, n = 3): 108 mg/mL (≈ 628 mM)
solubility (organic solvent or mixture, in Dimethyl sulfoxide (DMSO), n = 3): 786 mg/mL (≈ 4590 mM)
solubility (organic solvent or mixture, in Glycerol, n = 3): 28.4 mg/mL (≈ 166 mM)
solubility (organic solvent or mixture, in Glycofurol 75, n = 3): 443 mg/mL (≈ 2590 mM)
solubility (organic solvent or mixture, in Polyethylene glycol 400 (PEG-400), n = 3): 467 mg/mL (≈ 2720 mM)
solubility (organic solvent or mixture, in Propylene glycol (PG), n = 3): 118 mg/mL (≈ 688 mM)
Structure (SMILES): Cc1ccc(S(N)(=O)=O)cc1 [p-TSA, p-Toluenesulfonamide]
